SMILES | melting point
COC1CCCC(C2NC(=O)C2C(C)O[Si](C)(C)C(C)(C)C)C1O (centres undefined) | 146 to 148 °C
NC(=O)c1ccc(N)nc1F | 236 to 237 °C
CCCCOc1ccc(C2=CC=CN3CCS(=O)(=O)N=C23)cc1 | 230 to 232 °C
CCCCNc1nc(C)c(C#N)cc1C(=O)OCC | 61 to 63 °C
O=C(O)C1(CCCCCCCCCCCCC2(C(=O)NCCO)CC2)CC1 | 81.1 to 83.8 °C
ClC(Cl)(Cl)c1nc(-c2ccc(OCCCn3ccnc3)cc2)no1 | 102 to 103 °C
CSc1ccc(-c2coc3ccc(-c4nnc(C)o4)cc23)cc1 | 173 to 174 °C
CC(=NO)C(C)(C)NCCN(C)NC(C)(C)C(Cn1ccnc1[N+](=O)[O-])=NO | 156 to 158 °C
COc1cc(OC)c2c(=O)[nH]c(-c3ccc(OCC(N)=O)cc3)nc2c1 | 309 to 311 °C
COC(=O)N[C@@H](C)CNc1nccc(-c2cn(C(C)C)nc2-c2cc(Cl)cc(NS(C)(=O)=O)c2F)n1 | 150 to 152 °C
COc1ccc(C(C)(C)C)cc1C=Cc1ccc(C=O)cc1 | 82 to 83 °C
CN(C)C(=O)Oc1ccc(CO)cc1 | 76 °C
CC1(C)COC(=O)C1=O | 61 to 64 °C
Cc1cccc(C(=O)NC(C)C)c1NC(=O)c1cc(C(F)(F)F)nn1-c1ncccc1C(F)(F)F | 227 to 230 °C
CCCCCCCCCCCCCCCc1cc2cc(C(=O)OCCCC)ccc2[nH]1 | 79 to 80 °C
COc1ccc(OCCCCCc2cc(C)on2)c(Cl)c1 | 45 to 47 °C
C[C@H](Cn1cnnn1)n1cnc2cc3c(=O)n(C4CC4)nnc3cc2c1=O | 245 to 246 °C
CCCCCCCCCCCCCCCCCC(=O)NCC(C)(C)COC(=O)CCCCCCCCCCCCCCCCC | 60 to 62 °C
CC1(C)NC(=O)N(c2ccc([N+](=O)[O-])c(Cl)c2)C1=O | 144 to 145 °C
Clc1ccc2c(c1)C(c1ccccc1Cl)=NCc1n[nH]cc1-2 | 142 to 144 °C
CC(=O)OC1COC(Oc2ccc(C(=S)c3ccc(C)cc3)cc2)C(OC(C)=O)C1OC(C)=O (centres undefined) | 132 °C

SMILES | melting point
CCC1(c2ccncc2)CCC(=O)NC1=O (centres undefined) | 134 to 136 °C
CC(=CC(=O)c1cccs1)N1CCCC1 | 154 to 156 °C
C=C(C)C(=O)OCCCc1cc(CCCOC(=O)C(=C)C)c2oc(=O)c(-c3ccc(OC(=O)C(=C)C)cc3)cc2c1 | 49 °C
CC1(Cn2nc(-c3ccccc3)oc2=O)Cn2cc([N+](=O)[O-])nc2O1 (centres undefined) | 225 to 227 °C
Cc1cc(C)n2nc(S(=O)(=O)N(C)c3c(Cl)cccc3Cl)nc2n1 | 220 to 222 °C
Cc1oncc1C(=O)N1CCCCC1 | 40 to 43 °C
COc1ccc(C=NNC(=N)N)cc1OC1CCCC1 | 100 to 103 °C
CCOC(=O)[C@H](C)N[P@@]1(=O)OC[C@H]2O[C@@H](n3cnc4c(OCC)nc(N)nc43)[C@](C)(F)[C@@H]2O1 | 195 to 197 °C
CN(C)c1cc(C(F)(F)F)cc(Cl)c1-n1nc(C#N)c(S(=O)(=O)C(F)(F)F)c1N | 197 °C
COC(=O)c1nsc2nccn12 | 164 to 165 °C
CCOC(=O)c1nnc2n1-c1ccccc1C(c1ccccc1)=NC2 | 205 to 206 °C
CC(C)OC(=O)C(C)(C)c1cn2nc(Cl)ccc2n1 | 100 to 101 °C
CC(=O)Nc1ccc(SC2SCC(O)C(O)C2O)cc1 (centres undefined) | 226 to 233 °C
Cc1n[nH]c(CC(=O)O)c1Oc1cc(Cl)cc(Cl)c1 | 156 to 158 °C
Cc1ccc([N+](=O)[O-])cc1Nc1cccc(Br)c1 | 114 to 116 °C
Cc1cc(C)cc(C(=O)P2(=O)Oc3ccccc3-c3ccccc32)c1 (centres undefined) | 120 to 124 °C
O=C1c2ccccc2C(=O)N1Cc1cnc2n1-c1ccc(Cl)cc1C(c1ccccc1Cl)=NC2 | 218 to 220 °C
CCC(C#N)(C#N)Cc1ccc(Cl)cc1 | 70.9 °C
CN1C(=O)C(=O)c2cc([N+](=O)[O-])cc(C(F)(F)F)c21 | 168 to 169 °C
CN(C)c1ccc(C=NC2CCCCC2N=Cc2ccc(O)cc2O)c(O)c1 (centres undefined) | 202 °C

Second part, the compound after the results:

melting point | SMILES
> 300 °C | O=c1[nH]c2cc(O)ccc2c2oc3ccccc3c12
178 to 179 °C | CCn1nc2c(N)nc3cc(OS(=O)(=O)C(F)(F)F)ccc3c2c1CCc1ccccc1
208 °C | O=C(Nc1ccc2ccc(Cl)nc2n1)Oc1ccccc1
214 to 216 °C | COc1cccc(Nc2cc(Nc3ccc(F)c(Cl)c3)ncn2)c1
98 to 100 °C | CC(=O)NC[C@H]1CN(c2ccc(N3CCC(=C(C#N)Cc4ccccc4)CC3)c(F)c2)C(=O)O1
153 to 157 °C | COc1ccccc1[N+]1([O-])CC[N+]([O-])(CCN(C(=O)C2CCCCC2)c2ccccc2[N+](=O)[O-])CC1 (centres undefined)
116 °C | Fc1ccc(Cn2c(NC3CCN(CCN(Cc4ccccc4)Cc4ccccc4)CC3)nc3ccccc32)cc1
58 to 62 °C | O=C(Nc1ccccn1)C(CC1CCCC1)c1ccc(S(=O)(=O)C(F)(F)F)cc1 (centres undefined)
119 to 120 °C | CCCOc1ccc(-c2scc(-c3ccccc3Cl)c2CC(=O)NC(=N)n2cccn2)cc1
184 to 186 °C | COc1c(C2CCN(CCCCNC(=O)c3ccc(-c4ccc(Cl)cc4)nc3)CC2)ccc2c1CCCC2
83 to 85 °C | COCCn1c(S(C)=O)nc(-c2ccc(F)cc2)c1-c1ccnc(Nc2ccccc2)c1 (centres undefined)
99 to 100 °C | OC(c1ccc(F)cc1)(c1ccc(F)cc1)C1CCN(Cc2ccccc2)C1 (centres undefined)
165 to 167 °C | CNc1cc(-c2c(-c3ccc(F)cc3)ccn2C2CCNCC2)ccn1
274 to 276 °C | COc1cc2c(cc1Br)C(=CNc1ccc(N3CCN(C)CC3)cc1)C(=O)NC2=O
142 to 143 °C | COc1ccc(-c2cc(=O)n(Cc3c(Cl)cc(Cl)cc3Cl)nc2-c2ccc(OC)cc2)cc1
180 to 181 °C | CC1Oc2ccc(CN3CCN(CC(=O)NC4CC4)CC3)cc2NC1=O (centres undefined)
238 to 240 °C | CNc1nc(=O)n(CCCN2CCN(C(c3ccccc3)c3ccccc3)CC2)c2ccccc12
175 °C | Nc1nc2c(c(=O)[nH]1)n(Cc1ccccc1)c(=O)n2C1OC(CO)C(O)C1O (centres undefined)
144 to 147 °C | CC(c1ccc(-c2ccccc2Cl)cc1)S(=O)CC(=O)O (centres undefined)
174 to 175 °C | COC(=O)c1ccc(CN2CCN(c3nc(C)c(C(C)=O)s3)C2=O)cc1
73 to 74 °C | OCC1OC(OCc2ccccc2)C(OCc2ccccc2)C1O (centres undefined)
266 to 267 °C | COc1ccc(-c2oc3c(C(=O)O)cccc3c(=O)c2C)cc1
274 °C | O=C(Nc1cc(S(=O)(=O)N2CCC(O)C2)sc1Cl)c1cnn2c(C(F)F)cc(-c3ccc(C(F)(F)F)cc3)nc12 (racemic)
128 to 130 °C | CC(C)(NCCCn1cnc(CO)c1)c1ccc(-c2ccccc2)cc1
88 to 90 °C | N=C(N)c1ccc(C(=O)N[C@@H](Cc2ccc(O)cc2)C(=O)N2CCC(OCC(=O)O)CC2)cc1
104 °C | Cc1ncc(Cn2c(NC3CCN(CCNC(=O)c4cc5ccccc5n4C)CC3)nc3ccccc32)o1
172 °C | Cc1cc(NC(=O)c2ccn3c2CSC3c2cccnc2)c2ccccc2c1 (centres undefined)
171 to 172 °C | CC(F)(F)c1ccc(Oc2ccc(C3CCCN4CCS(=O)(=O)N=C34)cc2)cc1 (centres undefined)
